For four compounds, inhibition and Activity results are on record in ChEMBL document CHEMBL5252583, “Cancer cell growth suppressibility of ω-3 fatty acid whose carboxy group converted to ester group” (Bioorg Med Chem Lett, 2023).

One series deals with MCF7. As to the kind of experiment: Antiproliferative activity against human MCF7 cells assessed as cell growth inhibition at 500 uM measured after 24 hrs by alamar blue assay relative to control. It counts as functional.
Another series relates to MIA PaCa-2. The series can be described thus: Antiproliferative activity against human MIA PaCa-2 cells assessed as cell growth inhibition at 500 uM measured after 24 hrs by alamar blue assay relative to control. The series is classed as functional. In general terms: Resazurin is reduced to fluorescent resorufin, in cell work by metabolically active cells.
The next series has as its system HCT-116. As to the kind of experiment: Antiproliferative activity against human HCT-116 cells assessed as cell growth inhibition at 500 uM measured after 24 hrs by alamar blue assay relative to control. The series is classed as functional.
A short description of series [1]: Drug uptake in human MIA PaCa-2 cells assessed as increase in incorporation of compound into lipid droplets by measuring absorbance at 50 uM incubated for 24 hrs by Oil Red O staining based fluorescence microscopic analysis (reference value: 2.35 +/- 0.11 10^-2No_unit). It counts as ADME, cell-based. Particulars: mia paca-2, 24 h.

Structures are written as SMILES.

For `CC/C=C\C/C=C\C/C=C\CCCCCCCC(=O)Oc1ccccc1`, the inhibition (usually the relative decrease from the control value, in per cent) at 500 µM with MCF7 came out at 48%; in the series with MIA PaCa-2, 23%; in the series on HCT-116, 36%. In series [1], the Activity is 4.12 10^-2No_unit.

For `CC/C=C\C/C=C\C/C=C\CCCCCCCC(=O)Oc1ccc(OC)cc1`, the inhibition at 500 µM was determined as 49% in the series with MCF7, 26% in the series on MIA PaCa-2 and 40% in the series with HCT-116. The Activity in series [1] is given as 3.94 10^-2No_unit.

Regarding `CC/C=C\C/C=C\C/C=C\CCCCCCCC(=O)Oc1ccc(C(F)(F)F)cc1`, the inhibition at 500 µM amounted to 47% with MCF7, 25% in the series on MIA PaCa-2 and 37% with HCT-116. Besides, the Activity in series [1] was 4.07 10^-2No_unit.

Consider `CC/C=C\C/C=C\C/C=C\CCCCCCCC(=O)O` [LINOLENIC ACID], for which the results for the inhibition at 500 µM in the series with MCF7, in the series on MIA PaCa-2 and with HCT-116 were 50%, 25% and 36%, respectively. Besides, the Activity in series [1] is 4.19 10^-2No_unit.
